From ChEMBL document CHEMBL1142020, “2-substituted-4-aryl-6,7,8,9-tetrahydro-5H-pyrimido[4,5-b][1,5]oxazocin-5-one as a structurally new NK1 antagonist” (2005)

Key:
[1] = Effective bladder capacity increasing effect of compound (0.3 mg/kg i.v.) expressed as the ratio of increase in effective bladder capacity compared to saline treated animals in vivo; format: functional, Cavia porcellus
[2] = molecular target: Substance-P receptor (Cavia porcellus) (UniProt P30547); assay: Antagonist activity against tachykinin receptor 1 activity in guinea pig ileum in vitro; format: functional, tissue-based
Sequence of Substance-P receptor (Cavia porcellus) (P30547 whole entry): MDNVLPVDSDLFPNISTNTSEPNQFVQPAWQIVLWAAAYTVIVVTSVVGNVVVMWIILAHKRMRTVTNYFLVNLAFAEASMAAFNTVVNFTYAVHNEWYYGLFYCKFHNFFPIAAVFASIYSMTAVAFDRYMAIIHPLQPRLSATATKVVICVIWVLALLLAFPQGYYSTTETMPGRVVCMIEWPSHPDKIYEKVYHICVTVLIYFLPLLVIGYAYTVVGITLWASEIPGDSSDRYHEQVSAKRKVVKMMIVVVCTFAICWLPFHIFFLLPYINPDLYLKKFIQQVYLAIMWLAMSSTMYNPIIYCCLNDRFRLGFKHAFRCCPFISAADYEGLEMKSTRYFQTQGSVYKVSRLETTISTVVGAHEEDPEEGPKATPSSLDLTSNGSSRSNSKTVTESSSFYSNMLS

Cc1ccccc1-c1cc(N2CCC(N3CCCC3)CC2)nc2c1C(=O)N(Cc1cc(C(F)(F)F)cc(C(F)(F)F)c1)CCCO2
Effect [1]: 24.2%

Cc1ccc(-c2c3n(c(=O)c4ncccc24)CC[C@@H](C)CN(Cc2cc(C(F)(F)F)cc(C(F)(F)F)c2)C3=O)cc1
Kb [2]: 270 pM | Effect [1]: 12%

Cc1ccccc1-c1nc(N2CCC(N3CCCC3)CC2)cc2c1C(=O)N(Cc1cc(C(F)(F)F)cc(C(F)(F)F)c1)CCCO2
Kb [2]: 339 pM | Effect [1]: 3.97%

Cc1ccccc1-c1nc(N2CCC(N3CCCC3)CC2)nc2c1C(=O)N(Cc1cc(C(F)(F)F)cc(C(F)(F)F)c1)CCCO2
Kb [2]: 166 pM | Effect [1]: 33.4%
